Results reported in patent US8017606B2, “Quinoline derivatives as antibacterial agents” (Janssen Pharmaceutica NV, priority 2005, dated 2011).
Converted amounts (≈) assume the structure as drawn.

Tests used:
Assay in all cases: Microtitre plate assay, IC90 determination
Assay type in all cases: cell-based
[1] = tested on: Enterococcus faecalis (ATCC14506); details: 90% inhibitory concentration for bacterial growth, 37° C., resazurin fluorescence, read-out: IC90 (μg/ml) EFA 14506
Method: (§1) The bacteria used in this study were grown overnight in flasks containing 100 ml Mueller-Hinton Broth (Becton Dickinson—cat. no. 275730) in sterile de-ionized water, with shaking, at 37° C. Stocks (0.5 ml/tube) were stored at −70° C. until use. Bacteria titrations were performed in microtiter plates and colony forming units (CFUs) were determined. In general, an inoculum level of approximately 100 CFUs was used for susceptibility testing.
(§2) Anti Bacterial Susceptibility Testing: IC90 Determination
(§3) Flat-bottom, sterile 96-well plastic microtiter plates were filled with 180 μl of sterile deionized water, supplemented with 0.25% BSA. Subsequently, stock solutions (7.8×final test concentration) of compounds were added in 45 μl volumes in column 2 Serial five-fold dilutions (45 μl in 180 μl) were made directly in the microtiter plates from column 2 to reach column 11. Untreated control samples with (column 1) and without (column 12) inoculum were included in each microtiter plate. Depending on the bacteria type, approximately 10 to 60 CFU per well of bacteria inoculum (100 TCID50), in a volume of 100 μl in 2.8× Mueller-Hinton broth medium, was added to the rows A to H, except column 12. The same volume of broth medium without inoculum was added to column 12 in row A to H. The cultures were incubated at 37° C. for 24 hours under a normal atmosphere (incubator with open air valve and continuous ventilation). At the end of incubation, one day after inoculation, the bacterial growth was quantitated fluorometrically. Therefore resazurin (0.6 mg/ml) was added in a volume of 20 μl to all wells […], and the plates were re-incubated overnight. A change in colour from blue to pink indicated the growth of bacteria.
(§4) The fluorescence was read in a computer-controlled fluorometer (Cytofluor Biosearch) at an excitation wavelength of 530 nm and an emission wavelength of 590 nm. The % growth inhibition achieved by the compounds was calculated according to standard methods. The IC90 (expressed in μg/ml) was defined as the 90% inhibitory concentration for bacterial growth.

[2] = tested on: Streptococcus pneumoniae (ATCC6305); details: 90% inhibitory concentration for bacterial growth, 37° C., resazurin fluorescence, read-out: IC90 (μg/ml) SPN 6305
Method: as §1, §2, §3, §4

[3] = tested on: Enterococcus faecalis (ATCC29212); details: 90% inhibitory concentration for bacterial growth, 37° C., resazurin fluorescence, read-out: IC90 (μg/ml) EFA 29212
Method: as §1, §2, §3, §4

[4] = tested on: Streptococcus mutans (ATCC33402); details: 90% inhibitory concentration for bacterial growth, 37° C., resazurin fluorescence, read-out: IC90 (μg/ml) SMU 33402
Method: as §1, §2, §3, §4

[5] = tested on: methicilline resistant Staphylococcus aureus (MRSA) (a clinical isolate from the University of Antwerp); details: 90% inhibitory concentration for bacterial growth, 37° C., resazurin fluorescence, read-out: IC90 (μg/ml) STA RMETHIC
Method: as §1, §2, §3, §4

[6] = tested on: Bacillus subtilis (ATCC43639); details: 90% inhibitory concentration for bacterial growth, 37° C., resazurin fluorescence, read-out: IC90 (μg/ml) BSU 43639
Method: as §1, §2, §3, §4

[7] = tested on: Escherichia coli (ATCC35218); details: 90% inhibitory concentration for bacterial growth, 37° C., resazurin fluorescence, read-out: IC90 (μg/ml) ECO 35218
Method: as §1, §2, §3, §4

[8] = tested on: Staphylococcus aureus (ATCC29213); details: 90% inhibitory concentration for bacterial growth, 37° C., resazurin fluorescence, read-out: IC90 (μg/ml) STA 29213
Method: as §1, §2, §3, §4

[9] = tested on: Pseudomonas aeruginosa (ATCC27853); details: 90% inhibitory concentration for bacterial growth, 37° C., resazurin fluorescence, read-out: IC90 (μg/ml) PAE 27853
Method: as §1, §2, §3, §4

[10] = tested on: Staphylococcus aureus (ATCC43300); details: 90% inhibitory concentration for bacterial growth, 37° C., resazurin fluorescence, read-out: IC90 (μg/ml) STA 43300
Method: as §1, §2, §3, §4

[11] = tested on: Staphylococcus aureus (ATCC25923); details: 90% inhibitory concentration for bacterial growth, 37° C., resazurin fluorescence, read-out: IC90 (μg/ml) STA 25923
Method: as §1, §2, §3, §4

[12] = tested on: Streptococcus pyogens (ATCC8668); details: 90% inhibitory concentration for bacterial growth, 37° C., resazurin fluorescence, read-out: IC90 (μg/ml) SPY 8668
Method: as §1, §2, §3, §4

[13] = tested on: Listeria monocytogenes (ATCC49594); details: 90% inhibitory concentration for bacterial growth, 37° C., resazurin fluorescence, read-out: IC90 (μg/ml) LMO 49594
Method: as §1, §2, §3, §4

[14] = tested on: Escherichia coli (ATCC25922); details: 90% inhibitory concentration for bacterial growth, 37° C., resazurin fluorescence, read-out: IC90 (μg/ml) ECO 25922
Method: as §1, §2, §3, §4

[15] = tested on: Escherichia coli (ATCC1403); details: 90% inhibitory concentration for bacterial growth, 37° C., resazurin fluorescence, read-out: IC90 (μg/ml) ECO 1403
Method: as §1, §2, §3, §4

| IC90 [1] [µg/mL] | IC90 [2] [µg/mL] | IC90 [3] [µg/mL] | IC90 [4] [µg/mL] | IC90 [6] [µg/mL] | IC90 [7] [µg/mL] | IC90 [8] [µg/mL] | IC90 [9] [µg/mL] | IC90 [10] [µg/mL] | IC90 [11] [µg/mL] | IC90 [12] [µg/mL] | IC90 [13] [µg/mL] | IC90 [14] [µg/mL] | IC90 [15] [µg/mL] | SMILES | IC90 [5] [µg/mL] |
| --- | --- | --- | --- | --- | --- | --- | --- | --- | --- | --- | --- | --- | --- | --- | --- |
| 54.4 (≈ 79.4 µM) | 17.2 (≈ 25.1 µM) | 17.2 (≈ 25.1 µM) | 15.3 (≈ 22.3 µM) | 10.9 (≈ 15.9 µM) | 15.3 (≈ 22.3 µM) | 15.3 (≈ 22.3 µM) | 17.2 (≈ 25.1 µM) | 17.2 (≈ 25.1 µM) | 54.4 (≈ 79.4 µM) | 15.3 (≈ 22.3 µM) | 10.9 (≈ 15.9 µM) |  |  | CN(C)CCC(O)(c1ccccc1)c1cc(Br)cc2cc(Cc3ccccc3)c(NCCC(c3ccccc3)c3ccccc3)nc12 (stereo not shown) [Compound 59] | 54.4 (≈ 79.4 µM) |
|  | 56.3 (≈ 100 µM) | 56.3 (≈ 100 µM) | 44.7 (≈ 79.5 µM) | 56.3 (≈ 100 µM) |  | 44.7 (≈ 79.5 µM) | 56.3 (≈ 100 µM) |  | 56.3 (≈ 100 µM) | 22.4 (≈ 39.8 µM) | 56.3 (≈ 100 µM) | 56.3 (≈ 100 µM) |  | CN(C)CCOc1nc2c(C(O)(CCN(C)C)c3ccccc3)cc(Br)cc2cc1Cc1ccccc1 (stereo not shown) [Compound 49] | 56.3 (≈ 100 µM) |
|  | 14.6 (≈ 25.2 µM) | 14.6 (≈ 25.2 µM) | 14.6 (≈ 25.2 µM) | 14.6 (≈ 25.2 µM) | 11.6 (≈ 20 µM) | 11.6 (≈ 20 µM) | 14.6 (≈ 25.2 µM) |  | 13 (≈ 22.4 µM) | 11.6 (≈ 20 µM) | 14.6 (≈ 25.2 µM) | 14.6 (≈ 25.2 µM) | 13 (≈ 22.4 µM) | CN(C)CCC(O)(c1cccs1)c1cc(Br)cc2cc(Cc3ccccc3)c(N3CCN(C)CC3)nc12 (stereo not shown) [Compound 20] | 46 (≈ 79.4 µM) |
